Results on one compound are retold here after PMC6253949, “The Inhibitory Action of Kohamaic Acid A Derivatives on Mammalian DNA Polymerase β” (Molecules, 2008).

SMILES strings stand for the structures.

In one assay the target is T1, T4 Polynucleotide kinase (Enterobacteria phage T4, UniProt P06855).
T1 construct: purchased Takara (Kyoto, Japan)
Description: T4 polynucleotide kinase assay. It is filed as biochemical. From the text: (§1) Pol α was purified from calf thymus by immuno-affinity column chromatography as described by Tamai et al.. Recombinant rat pol β was purified from E. coli JMpβ5 as described by Date et al.. The human pol γ catalytic gene was cloned into pFastBac. Histidine-tagged enzyme was expressed using the BAC-TO-BAC HT Baculovirus Expression System according to the supplier's manual (LIFE TECHNOLOGIES, MD, USA) and purified using ProBoundresin (Invitrogen Japan, Tokyo, Japan). Human pols δ and ε were purified by the nuclear fractionation of human peripheral blood cancer cells (Molt-4) using the second subunit of pols δ and ε-conjugated affinity column chromatography, respectively. Recombinant human pols η and ι tagged with His6 at their C-terminal were expressed in SF9 insect cells using the baculovirus expression system, and were purified as described previously. A truncated form of pol κ (i.e., hDINB1DC) with 6 x His-tags attached at the C-terminal was overproduced using the BAC-to-BAC Baculovirus Expression System kit (GIBCO BRL, MD, USA) and purified as described previously. […]
The primase activity of calf pol α, the activities of T7 RNA polymerase, T4 polynucleotide kinase and bovine DNase I were measured in standard assays according to the manufacturer's specifications as described by Tamiya-Koizumi et al., Nakayama et al., Soltis et al., and Lu and Sakaguchi, respectively.

For another assay, the target named is T2, Human DNA polymerase κ (Homo sapiens, UniProt Q9UBT6).
T2 construct: A truncated form of pol κ (i.e., hDINB1DC); 6xHis (C); made in house; host or cells: baculovirus expression system (insect cells)
T2 sequence (Q9UBT6 1-560 limits assumed): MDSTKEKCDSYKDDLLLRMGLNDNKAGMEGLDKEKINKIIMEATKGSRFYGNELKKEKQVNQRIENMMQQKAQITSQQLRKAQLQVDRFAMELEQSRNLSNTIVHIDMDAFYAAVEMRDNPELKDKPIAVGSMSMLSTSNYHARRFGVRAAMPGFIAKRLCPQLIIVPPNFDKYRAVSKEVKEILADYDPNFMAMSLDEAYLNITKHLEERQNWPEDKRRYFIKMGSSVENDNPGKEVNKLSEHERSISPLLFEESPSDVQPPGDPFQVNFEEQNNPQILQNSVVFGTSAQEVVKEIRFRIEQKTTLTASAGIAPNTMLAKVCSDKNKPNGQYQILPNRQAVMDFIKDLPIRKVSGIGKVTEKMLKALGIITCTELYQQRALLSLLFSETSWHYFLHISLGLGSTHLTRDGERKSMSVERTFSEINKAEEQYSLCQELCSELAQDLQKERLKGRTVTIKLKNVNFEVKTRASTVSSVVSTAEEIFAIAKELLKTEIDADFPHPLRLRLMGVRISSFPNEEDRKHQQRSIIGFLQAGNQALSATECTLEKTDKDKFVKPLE
Description: DNA polymerase assay, human pol κ. In kind it is biochemical.
Source text: as §1
For pols, poly(dA)/oligo(dT)12-18 (A/T = 2/1) and dTTP were used as the DNA template-primer and nucleotide (i.e., dNTP) substrate, respectively. […] Activity without the inhibitor was considered 100%, and the remaining activity at each concentration of the inhibitor was determined relative to this value. […]

T1 sequence (P06855 whole entry): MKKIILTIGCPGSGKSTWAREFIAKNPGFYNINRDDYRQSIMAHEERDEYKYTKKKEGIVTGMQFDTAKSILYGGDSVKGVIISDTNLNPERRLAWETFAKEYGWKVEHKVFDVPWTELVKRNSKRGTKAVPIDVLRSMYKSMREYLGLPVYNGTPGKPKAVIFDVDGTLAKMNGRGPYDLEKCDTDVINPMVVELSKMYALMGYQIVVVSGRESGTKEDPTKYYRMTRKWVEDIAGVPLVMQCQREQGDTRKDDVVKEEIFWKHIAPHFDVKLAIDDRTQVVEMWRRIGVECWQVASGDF

For the compound `CC1=CC[C@H]2C(C)(C)CCC[C@]2(C)[C@H]1CCCCCCCCCCCCCCCCC(=O)O` (relative stereo) [compound 11, (1S*,4aS*,8aS*)-17-(1,4,4a,5,6,7,8,8a-octahydro-2,5,5,8a-tetramethylnaphthalen-1-yl)heptadecanoic acid], the IC50 at T4 Polynucleotide kinase is above 200 µM; against Human DNA polymerase κ, 7.2 ± 0.36 µM.
